Experimental data: patent US9663517B2, “Compositions and uses thereof” (Plexxikon Inc., priority 2009, dated 2017)

Assay: pKa of weakly basic centre
Type: physicochemical
Conditions: N-7 of the azaindole portion
From the text: Propane-1-sulfonic acid {3-[5-(4-chloro-phenyl)-1H-pyrrolo[2,3-b]pyridine-3-carbonyl]-2,4-difluoro-phenyl}-amide is characterized as having functionalities providing both weakly basic and weakly acidic centers which can form organic salt complexes, resulting in improved solubility. For example, the N-7 of the azaindole portion is weakly basic (pKa approximately 4-5) and can form an acid addition salt complex with an organic acid such as benzenesulfonic acid, methylsulfonic acid or toluenesulfonic acid, preferably methanesulfonic acid or toluenesulfonic acid. Such mesylate or tosylate salts provide advantage over the free base, such as an improved solubility, improved intrinsic dissolution rate, and lower melting point than the free base. The improved intrinsic dissolution rate provides an advantage in formulation of the salt, for example, formulation in an amorphous form by methods described in the above examples. The improved solubility provides more efficient and cost effective formulation, for example spray drying or microprecipitated bulk processing can be performed using far less solvent volumes due to the intrinsic solubility. Such advantages may also be provided by formation of the mesylate or tosylate salt in situ during the processing, for example the process of spray drying, solvent controlled precipitation, or pH controlled precipitation. […]

pKa: 4 to 5
Structure (SMILES): CCCS(=O)(=O)Nc1ccc(F)c(C(=O)c2c[nH]c3ncc(-c4ccc(Cl)cc4)cc23)c1F [Compound I, propane-1-sulfonic acid {3-[5-(4-chloro-phenyl)-1H-pyrrolo[2,3-b]pyridine-3-carbonyl]-2,4-difluoro-phenyl}-amide]
